Patent US20240216589A1, “DRUG DELIVERY COMPOSITIONS AND METHODS OF CONTROLLING DRUG DELIVERY RATES OF SUBCUTANEOUS SENSORS” (ABBOTT DIABETIS CARE INC., priority 2022, published 2024)

Assay: Dex solubility in the polyvinylpyridine-ethanol:water (95:5 by volume) solution
Type: physicochemical
Procedure: FIG. 33 illustrates the Dex solubility in the polyvinylpyridine-ethanol:water (95:5 by volume) solution according to certain embodiments of the present disclosure. The solubility of Dex in the PVP-ethanol:water solution was measured. For the solutions containing 0 wt %-30 wt % of Dex relative to the weight amount of PVP polymer, after the solutions were vortexed/sonicated within 15 minutes, the solutions became clear. […] Therefore, the drug delivery composition can include up to 40 wt % of Dex relative to the amount of copolymer to make a clear drug delivery composition.

C[C@@H]1C[C@H]2[C@@H]3CCC4=CC(=O)C=C[C@]4(C)[C@@]3(F)[C@@H](O)C[C@]2(C)[C@@]1(O)C(=O)CO [Dex, dexamethasone]
solution clarity (0 wt %-30 wt % of Dex relative to PVP, vortexed/sonicated within 15 minutes): became clear
solution clarity (40 wt % of Dex relative to PVP, mixing overnight on the nutator): became clear after mixing overnight
solution clarity (50 wt % of Dex relative to PVP, mixing overnight on the nutator): did not become clear
maximum Dex relative to the amount of copolymer to make a clear drug delivery composition (ethanol:water 95:5 by volume): up to 40 wt %
